The source of these data is US6683184B2, “Piperazine derivatives and process for the preparation thereof” (Samjin Pharmaceutical Co., Ltd., priority 1999, dated 2004).

Data set [1] concerns A549 (human non-small lung cell). The experiment in a line: In vitro antitumor effect against human tumor cell lines, SRB assay, A549. The class given is cell-based. Conditions: A549 cells, 48 hours. In outline: (§1)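 48 h continuous compound exposure, SRB protein stain, OD 520 nm. Values derived from time-zero (Tz), control (C) and treated (T) readings: 100×(T−Tz)/(C−Tz) when T≧Tz, 100×(T−Tz)/Tz when T<Tz.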

A further data set deals with SKOV-3 (human ovarian). The experiment in a line: In vitro antitumor effect against human tumor cell lines, SRB assay, SKOV-3. The class given is cell-based. Conditions: SK-OV-3 cells, 48 hours. An outline of the steps: as §1
The next data set deals with SKMEL-2 (human melanoma). Put plainly: In vitro antitumor effect against human tumor cell lines, SRB assay, SKMEL-2. The conditions noted are these: SK-MEL-2 cells, 48 hours. Type of data set: cell-based. In outline:
as §1

A further data set relates to XF 498 (human CNS). Put plainly: In vitro antitumor effect against human tumor cell lines, SRB assay, XF 498. Conditions: 48 hours. The class given is cell-based. In outline:
as §1

The next data set has as its system HCT-15 (human colon). Put plainly: In vitro antitumor effect against human tumor cell lines, SRB assay, HCT-15. Type of data set: cell-based. Conditions: HCT 15 cells, 48 hours. In outline:
as §1

In another data set the test system is ICR mice. The experiment in a line: Acute toxicity test (LD50), Litchfield-Wilcoxon method. Type of data set: in vivo. Conditions: male, i.v., observed 14 days.
The test system of data set [2] is P388 (mouse lymphoid neoplasma cell). The experiment in a line: In vitro antitumor effects against animal leukemia cells, dye exclusion assay. Type of data set: cell-based. Conditions: 48 hours, trypan blue dye exclusion, read-out: P388 (IC50, concentration showing 50% cell growth inhibition compared with the control). As to the method:
In vitro antitumor effects against animal leukemia cells.
Tumor cell line: P388 (mouse lymphoid neoplasma cell)
B. Method: Dye Exclusion Assay.
1) Concentrations of P388 cells being cultured in RPMI 1640 media containing 10% FBS were regulated to 1×10^6 cells/ml.
2) Sample drugs of respective concentrations diluted in the ratio of log doses were added into each cell culture and cultured at 37° C., for 48 hours, in […] incubator, and then viable cell numbers were measured by dye exclusion test using trypan blue.

Data set [3] in a line: Acute toxicity test (LD50), Litchfield-Wilcoxon method. Type of data set: in vivo. The conditions noted are these: mouse, in vivo, iv; ICR mice, male, i.v., observed 14 days; read-out: LD50 i.v.

≈ marks a conversion by molar mass, not a printed value. Where only a bound is given, the exact number is not on record here.

For `COc1nc(C)c(C)cc1N=C(NO)N1CCN(c2cc(C)cc(C)c2)CC1` [Example 99, N-Hydroxy-N′-(5,6-dimethyl-2-methoxypyridin-3-yl)-[4-(3,5-dimethylphenyl)piperazin-1-yl]carboxyimidamide], the “ED50 A 549” value in data set [1] amounted to 12 ng/mL (≈ 31.3 nM). Also, the “ED50 SK-OV-3” value in the data set with SKOV-3 (human ovarian) was 8 ng/mL (≈ 20.9 nM). Further, the “ED50 SK-MEL-2” value in the data set on SKMEL-2 (human melanoma) stood at 6 ng/mL (≈ 15.6 nM). The “ED50 XF-498” value in the data set with XF 498 (human CNS) (XF-498 cells) was found to be 10 ng/mL (≈ 26.1 nM). The “ED50 HCT 15” value in the data set with HCT-15 (human colon) is 3 ng/mL (≈ 7.82 nM). For the same compound, in the data set on ICR mice, the LD50 i.v. is listed as >200 mg/kg.

`COc1nc(C)c(C)cc1N=C(NO)N1CCN(c2cccc(Br)c2)CC1` [Example 104, N-Hydroxy-N′-(5,6-dimethyl-2-methoxypyridin-3-yl)-[4-(3-bromophenyl)piperazin-1-yl]carboxyimidamide]: the LD50 i.v. in the data set with ICR mice was found to be 212 mg/kg.

Take `COc1nc(C)c(C)nc1NC(=O)N1CCN(c2cc(C)cc(C)c2)CC1` [Example 7, 1-[(5,6-Dimethyl-2-methoxypyrazin-3-yl)aminocarbonyl]-4-(3,5-dimethylphenyl)piperazine]: the IC50 was found to be 2.4 ng/mL (≈ 6.5 nM) in data set [1] (Homo sapiens, read-out: ED50 A 549); 7.2 ng/mL (≈ 19.5 nM) in the data set on SKOV-3 (human ovarian) (Homo sapiens, read-out: ED50 SK-OV-3); 2.3 ng/mL (≈ 6.23 nM) in the data set with SKMEL-2 (human melanoma) (Homo sapiens, read-out: ED50 SK-MEL-2); 2.7 ng/mL (≈ 7.31 nM) in the data set with XF 498 (human CNS) (Homo sapiens, XF498, XF-498 cells, read-out: ED50 XF-498); 2.8 ng/mL (≈ 7.58 nM) with HCT-15 (human colon) (Homo sapiens, read-out: ED50 HCT 15); 20 ng/mL (≈ 54.1 nM) in data set [2]. Besides, the LD50 at 14 days in data set [3] came out at 75 mg/kg.
